According to patent publication US20170348376A1, “TUBULYSIN CONJUGATE FOR USE IN TREATING CANCER” (ENDOCYTE, INC., priority 2016, published 2017):
Structures can show the parent of a compound that is named as a salt.

How the values were obtained:
[1] = test system: primary human NSCLC model LU2505 tumors; experiment: Antitumor activity in Huprime NSCLC PDX tumor model LU2505; assay type: in vivo, Balb/c nu/nu mice; conditions: Docetaxel 15 mg/kg, one dose
Experimental: (§1) These studies were performed at Crown Bioscience (Beijing) Inc., Ground Floor, Light Muller Building, Changping Sector of Zhongguancun Scientific Park, No. 21 Huoju Road, Changping District, Beijing, P.R. China.

[2] = test system: primary human NSCLC model LU1147 tumors; experiment: Antitumor activity in Huprime NSCLC PDX tumor model LU1147; assay type: in vivo, Balb/c nu/nu mice; conditions: Docetaxel 15 mg/kg, one dose
Experimental: as §1

[3] = test system: FR-positive paclitaxel resistant KB-PR10 tumors; experiment: Antitumor activity on paclitaxel resistant KB-PR10 tumors; assay type: in vivo, nu/nu mice; conditions: paclitaxel 20 mg/kg, three times a week for two weeks (TIW×2), i.v.
Experimental: Four to six week-old female nu/nu mice (Harlan Sprague Dawley, Inc., Indianapolis, Ind.) were maintained on a standard 12 h light-dark cycle and fed ad libitum with folate-deficient chow (Harlan diet #TD00434, Harlan Teklad, Madison, Wis.) for the duration of the experiment. FR-positive paclitaxel resistant KB-PR10 cells were grown continuously as a monolayer, using folate-free RPMI medium (FFRPMI) containing 5% heat-inactivated fetal calf serum (HIFCS) at 37° C. in a 5% CO2/95% air-humidified atmosphere with no antibiotics. KB-PR10 cells (1×10^6 per nu/nu mouse) in 100 μL were injected in the subcutis of the dorsal medial area. […] Mice were treated with 20 mg/kg Paclitaxel, 2 μmol/kg EC145 (See WO2004/069159 for a description of EC145) or 1 μmol/kg Compound I on a three times a week for 2 weeks schedule when the tumors were approximately 100-145 mm^3, 101-129 mm^3 and 100-140 mm^3 in volume, respectively. The mice in the control groups received no treatment.

[4] = test system: primary human Endometrial model ST040 tumors; experiment: Antitumor activity in Endometrial ST040 model; assay type: in vivo, Balb/c nu/nu mice; conditions: Paclitaxel 15 mg/kg, once a week for two weeks (SIW×2); n=3
[5] = test system: primary human Ovarian model ST024 tumors; experiment: Antitumor activity in Ovarian ST024 model; assay type: in vivo, Balb/c nu/nu mice; conditions: Paclitaxel 15 mg/kg, once a week for two weeks (SIW×2); n=7
[6] = test system: primary human TNBC model ST502 tumors; experiment: Antitumor activity in TNBC ST502 model; assay type: in vivo, Balb/c nu/nu mice; conditions: Eribulin mesylate 1 mg/kg, once a week for two weeks (SIW×2); n=7
Experimental: (§2) These materials were obtained from and studies were performed at South Texas Accelerated Research Therapeutics, 4383 Medical Drive, San Antonio, Tex. 78229

[7] = test system: primary human TNBC model ST738 tumors; experiment: Antitumor activity in TNBC ST738 model; assay type: in vivo, Balb/c nu/nu mice; conditions: Eribulin mesylate 1 mg/kg, once a week for two weeks (SIW×2); n=7
Experimental: as §2

CC(=O)O[C@@]12CO[C@@H]1C[C@H](O)[C@@]1(C)C(=O)[C@H](O)C3=C(C)[C@@H](OC(=O)[C@H](O)[C@@H](NC(=O)OC(C)(C)C)c4ccccc4)C[C@@](O)([C@@H](OC(=O)c4ccccc4)[C@H]21)C3(C)C [Docetaxel]
anti-tumor activity [1]: some anti-tumor activity | anti-tumor activity [2]: minimal anti-tumor activity

CC(=O)O[C@H]1C(=O)[C@@]2(C)[C@H]([C@H](OC(=O)c3ccccc3)[C@]3(O)C[C@H](OC(=O)[C@H](O)[C@@H](NC(=O)c4ccccc4)c4ccccc4)C(C)=C1C3(C)C)[C@]1(OC(C)=O)CO[C@@H]1C[C@@H]2O [Paclitaxel]
anti-tumor activity [3]: little to no anti-tumor activity | partial responses [3]: 0 | anti-tumor activity [4]: minimal anti-tumor activity | anti-tumor activity [5]: no anti-tumor activity

C=C1C[C@@H]2CC[C@@]34C[C@H]5O[C@H]6[C@@H](O3)[C@H]3O[C@H](CC[C@@H]3O[C@H]6[C@H]5O4)CC(=O)C[C@@H]3[C@@H](OC)[C@@H](C[C@H](O)CN)O[C@H]3C[C@H]3O[C@@H](CC[C@@H]1O2)C[C@@H](C)C3=C [Eribulin mesylate]
anti-tumor activity [6]: minimal anti-tumor activity | anti-tumor activity [7]: some anti-tumor activity
